In US20120178766A1, “FUROPYRIMIDINEDIONE DERIVATIVES AS TRPAI MODULATORS” (priority 2009, published 2012) one finds inhibition and IC50 data, which are given here for 13 molecules.

Assay [1] addresses T1, human TRPA1 (Homo sapiens, UniProt O75762).
T1 construct: expressed in transfected cells; host or cells: CHO cells (G-418 selection)
Nature of the assay: 45Calcium uptake assay: inhibition of AITC induced cellular uptake of radioactive calcium, human TRPA1 expressing CHO cells. The format is cell-based. The following applies: AITC 30 μM; for inhibition at 1 µM: 1.0 μM compound, read-out: human TRPA1 Percentage inhibition at 1.0 μM; for inhibition at 10 µM: 10.0 μM compound, read-out: human TRPA1 Percentage inhibition at 10.0 μM; for IC50: class symbols. An excerpt:
The illustrative examples of the present invention are screened for TRPA1 activity according to a modified procedure described in (a) Tóth, A. et al. Life Sciences, 2003, 73, 487-498. (b) McNamara C, R. et al, Proc. Natl. Acad. Sci. U.S.A., 2007, 104, 13525-13530. The screening of the compounds can be carried out by other methods and procedures known to persons skilled in the art.
(§1) Screening for TRPA1 Antagonist Using the ^45Calcium Uptake Assay:
(§2) The inhibition of TRPA1 receptor activation was measured as inhibition of allyl isothiocyanate (AITC) induced cellular uptake of radioactive calcium.
Test compounds were dissolved in 100% DMSO to prepare 10 mM stock and then diluted using plain medium with 0.1% BSA and 1.8 mM CaCl2 to get the desired concentration. The final concentration of DMSO in the reaction was 0.5% (v/v). Human TRPA1 expressing CHO cells were grown in F-12 DMEM medium with 10% FBS, 1% penicillin-streptomycin solution, and 400 μg/ml of G-418. Rat TRPA1 expressing CHO cells were grown in F-12 DMEM medium with 10% FBS, 1% penicillin-streptomycin solution, and 400 μg/ml of Zeocin. Cells were seeded 24 h prior to the assay in 96 well plates so as to get ˜50,000 cells per well on the day of experiment. Cells were treated with the test compounds for 10 minutes followed by the addition of AITC at a final concentration of 30 μM (for human TRPA1) and/or 10 μM (for rat TRPA1) and 5 μCi/ml ^45Ca^+2 for 3 minutes. Cells were washed and lysed using a buffer containing 1% Triton X-100, 0.1% deoxycholate and 0.1% SDS. Radioactivity in the lysate was measured in a Packard TopCount after addition of liquid scintillant. (Toth et al, Life Sciences (2003) 73, 487-498; McNamara C R et al, Proceedings of the National Academy of Sciences, (2007) 104, 13525-13530).
(§3) Concentration response curves were plotted as a % of maximal response obtained in the absence of test antagonist. IC50 values can be calculated from concentration response curve by nonlinear regression analysis using GraphPad PRISM software.

Assay [2] has as its target T2, rat TRPA1 (Rattus norvegicus, UniProt Q6RI86).
T2 construct: expressed in transfected cells; host or cells: CHO cells (Zeocin selection)
Nature of the assay: 45Calcium uptake assay: inhibition of AITC induced cellular uptake of radioactive calcium, rat TRPA1 expressing CHO cells. The following applies: AITC 10 μM; for inhibition at 10 µM: 10.0 μM compound, read-out: rat TRPA1 Percentage inhibition at 10.0 μM; for inhibition at 1 µM: read-out: rat TRPA1 Percentage inhibition; for IC50: class symbols. The format is cell-based. As to the method: as §1, §2
Test compounds were dissolved in 100% DMSO to prepare 10 mM stock and then diluted using plain medium with 0.1% BSA and 1.8 mM CaCl2 to get the desired concentration. The final concentration of DMSO in the reaction was 0.5% (v/v). […] Rat TRPA1 expressing CHO cells were grown in F-12 DMEM medium with 10% FBS, 1% penicillin-streptomycin solution, and 400 μg/ml of Zeocin. […] Cells were treated with the test compounds for 10 minutes followed by the addition of AITC at a final concentration of 30 μM (for human TRPA1) and/or 10 μM (for rat TRPA1) and 5 μCi/ml ^45Ca^+2 for 3 minutes. Cells were washed and lysed using a buffer containing 1% Triton X-100, 0.1% deoxycholate and 0.1% SDS. Radioactivity in the lysate was measured in a Packard TopCount after addition of liquid scintillant.
as §3

Usually inhibition stands for how much of the control response was suppressed. In general, IC50 refers to the concentration at which inhibition is half-maximal.

T2 sequence (Q6RI86 whole entry): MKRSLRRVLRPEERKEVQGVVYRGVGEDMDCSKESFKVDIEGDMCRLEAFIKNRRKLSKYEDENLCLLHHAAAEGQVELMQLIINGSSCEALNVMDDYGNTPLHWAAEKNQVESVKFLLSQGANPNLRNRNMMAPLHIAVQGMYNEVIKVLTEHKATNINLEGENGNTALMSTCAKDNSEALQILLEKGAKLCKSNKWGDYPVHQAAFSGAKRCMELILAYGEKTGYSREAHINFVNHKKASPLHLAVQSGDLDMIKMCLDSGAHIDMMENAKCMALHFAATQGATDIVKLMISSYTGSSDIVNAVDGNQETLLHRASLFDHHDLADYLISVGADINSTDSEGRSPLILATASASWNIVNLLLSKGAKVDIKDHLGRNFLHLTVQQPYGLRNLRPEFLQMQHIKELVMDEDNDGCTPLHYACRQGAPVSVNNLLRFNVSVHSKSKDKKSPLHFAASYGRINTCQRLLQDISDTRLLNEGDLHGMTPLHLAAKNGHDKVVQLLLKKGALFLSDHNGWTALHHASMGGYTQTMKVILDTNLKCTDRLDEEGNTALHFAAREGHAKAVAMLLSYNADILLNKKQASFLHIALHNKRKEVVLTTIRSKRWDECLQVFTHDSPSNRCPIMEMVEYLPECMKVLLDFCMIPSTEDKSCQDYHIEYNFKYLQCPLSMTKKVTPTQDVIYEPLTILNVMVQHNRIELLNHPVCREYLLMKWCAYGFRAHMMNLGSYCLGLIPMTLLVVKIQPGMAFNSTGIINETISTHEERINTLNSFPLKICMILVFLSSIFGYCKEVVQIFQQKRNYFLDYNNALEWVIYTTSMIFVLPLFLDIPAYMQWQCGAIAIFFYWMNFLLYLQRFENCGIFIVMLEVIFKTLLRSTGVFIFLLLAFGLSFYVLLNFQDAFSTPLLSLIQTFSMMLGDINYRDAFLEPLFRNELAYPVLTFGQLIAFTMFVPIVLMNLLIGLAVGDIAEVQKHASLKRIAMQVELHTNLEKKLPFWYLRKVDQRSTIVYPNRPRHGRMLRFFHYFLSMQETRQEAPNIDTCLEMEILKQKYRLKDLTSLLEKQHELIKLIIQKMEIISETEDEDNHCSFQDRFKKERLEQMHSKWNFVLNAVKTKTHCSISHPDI
T1 sequence (O75762 whole entry): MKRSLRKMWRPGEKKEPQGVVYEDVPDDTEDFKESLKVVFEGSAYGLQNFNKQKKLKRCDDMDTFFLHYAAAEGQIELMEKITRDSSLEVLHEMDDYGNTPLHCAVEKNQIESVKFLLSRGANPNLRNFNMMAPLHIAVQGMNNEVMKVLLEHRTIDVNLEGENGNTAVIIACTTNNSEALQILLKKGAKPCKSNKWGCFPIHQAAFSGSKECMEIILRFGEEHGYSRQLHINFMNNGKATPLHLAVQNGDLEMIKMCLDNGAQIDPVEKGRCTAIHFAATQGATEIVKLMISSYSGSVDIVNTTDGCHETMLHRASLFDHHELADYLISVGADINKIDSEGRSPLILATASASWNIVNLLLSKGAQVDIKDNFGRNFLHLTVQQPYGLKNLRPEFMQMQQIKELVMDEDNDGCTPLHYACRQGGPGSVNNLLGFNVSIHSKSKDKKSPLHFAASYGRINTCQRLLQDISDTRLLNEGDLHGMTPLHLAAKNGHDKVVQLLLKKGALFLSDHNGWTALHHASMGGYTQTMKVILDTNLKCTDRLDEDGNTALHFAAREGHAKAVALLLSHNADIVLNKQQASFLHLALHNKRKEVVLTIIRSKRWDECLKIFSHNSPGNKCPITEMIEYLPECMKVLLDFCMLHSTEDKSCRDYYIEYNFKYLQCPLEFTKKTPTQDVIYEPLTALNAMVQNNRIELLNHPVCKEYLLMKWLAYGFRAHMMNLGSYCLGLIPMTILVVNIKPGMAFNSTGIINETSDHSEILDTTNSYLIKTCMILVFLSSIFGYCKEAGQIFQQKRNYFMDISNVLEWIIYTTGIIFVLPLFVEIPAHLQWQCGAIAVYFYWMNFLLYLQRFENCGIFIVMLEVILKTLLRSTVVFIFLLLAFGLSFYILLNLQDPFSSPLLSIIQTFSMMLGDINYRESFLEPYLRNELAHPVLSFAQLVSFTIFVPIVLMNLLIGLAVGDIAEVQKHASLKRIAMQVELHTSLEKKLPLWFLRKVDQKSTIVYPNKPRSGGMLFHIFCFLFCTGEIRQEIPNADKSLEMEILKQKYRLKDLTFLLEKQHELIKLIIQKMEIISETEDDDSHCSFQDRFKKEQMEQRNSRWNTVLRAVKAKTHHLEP

As to `Cn1c(=O)c2c(CC(=O)Nc3nc(-c4ccc(OCC(C)(C)C)c(Cl)c4)cs3)coc2n(C)c1=O` [Example 27, N1-{4-[3-Chloro-4-(2,2-dimethylpropoxy)phenyl]-1,3-thiazol-2-yl}-2-(1,3-dimethyl-2,4-dioxo-1,2,3,4-tetrahydrofuro[2,3-d]pyrimidin-5-yl)acetamide], in assay [1], the inhibition at 1 µM amounted to 97.1%, the inhibition at 10 µM is 99.2% and the IC50 was more than 100 nM. For the same molecule, in assay [2], the inhibition at 10 µM was found to be 100% and the inhibition at 1 µM turned out to be 93.1%.

`Cn1c(=O)c2c(CC(=O)Nc3nc(-c4ccc(OCC(C)(C)C)c(Br)c4)cs3)coc2n(C)c1=O` [Example 28, N1-{4-[3-Bromo-4-(2,2-dimethylpropoxy)phenyl]-1,3-thiazol-2-yl}-2-(1,3-dimethyl-2,4-dioxo-1,2,3,4-tetrahydrofuro[2,3-d]pyrimidin-5-yl)acetamide]: in assay [1], the inhibition at 1 µM turned out to be 96.7%, the inhibition at 10 µM was 99.3% and the IC50 was more than 100 nM. Besides, in assay [2], the inhibition at 10 µM worked out at 100% and the inhibition at 1 µM came to 98.5%.

In the case of `Cn1c(=O)c2c(CC(=O)Nc3nc(-c4ccc(OCC(F)(F)F)c(F)c4)cs3)coc2n(C)c1=O` [Example 30, N1-{4-[3-Fluoro-4-(2,2,2-trifluoroethoxy)phenyl]-1,3-thiazol-2-yl}2-(1,3-dimethyl-2,4-dioxo-1,2,3,4-tetrahydrofuro[2,3-d]pyrimidin-5-yl)acetamide], in assay [1], the inhibition at 1 µM was 97.4%, the inhibition at 10 µM was determined as 100% and the IC50 was less than 50 nM. In assay [2], the inhibition at 10 µM amounted to 100%, the inhibition at 1 µM came out at 97.1% and the IC50 was more than 100 nM.

Regarding `Cn1c(=O)c2c(CC(=O)Nc3nc(-c4ccc(OCC(F)(F)F)c(Cl)c4)cs3)coc2n(C)c1=O` [Example 31, N1-{4-[3-Chloro-4-(2,2,2-trifluoroethoxy)phenyl]-1,3-thiazol-2-yl}2-(1,3-dimethyl-2,4-dioxo-1,2,3,4-tetrahydrofuro[2,3-d]pyrimidin-5-yl)acetamide], in assay [1], the inhibition at 1 µM amounted to 98.3%, the inhibition at 10 µM was 99.8% and the IC50 was less than 50 nM. Besides, in assay [2], the inhibition at 10 µM came out at 100%, the inhibition at 1 µM is 96.8% and the IC50 was in the range of 50 to 100 nM.

For the molecule `Cn1c(=O)c2c(CC(=O)Nc3nc(-c4ccc(OCC(F)(F)F)c(Br)c4)cs3)coc2n(C)c1=O` [Example 32, N1-{4-[3-Bromo-4-(2,2,2-trifluoroethoxy)phenyl]-1,3-thiazol-2-yl}2-(1,3-dimethyl-2,4-dioxo-1,2,3,4-tetrahydrofuro[2,3-d]pyrimidin-5-yl)acetamide], in assay [1], the inhibition at 1 µM stood at 99.8%, the inhibition at 10 µM came to 99.5% and the IC50 is less than 50 nM. For the same molecule, in assay [2], the inhibition at 10 µM was 100%, the inhibition at 1 µM came to 85.2% and the IC50 is less than 50 nM.

As for `Cn1c(=O)c2c(CC(=O)Nc3nc(-c4ccc(Cl)c(Cl)c4Cl)cs3)coc2n(C)c1=O` [Example 34, N1-[4-(2,3,4-Trichlorophenyl)-1,3-thiazol-2-yl]-2-(1,3-dimethyl-2,4-dioxo-1,2,3,4-tetrahydrofuro[2,3-d]pyrimidin-5-yl)acetamide], in assay [1], the inhibition at 1 µM was determined as 97%, the inhibition at 10 µM was 99.7% and the IC50 is less than 50 nM. In addition, in assay [2], the inhibition at 10 µM worked out at 99.3%, the inhibition at 1 µM was 91% and the IC50 was in the range of 50 to 100 nM.

Regarding `Cn1c(=O)c2c(CC(=O)Nc3nc(-c4ccc(F)c(C(F)(F)F)c4F)cs3)coc2n(C)c1=O` [Example 35, N1-{4-[2,4-Difluoro-3-(trifluoromethyl)phenyl]-1,3-thiazol-2-yl}2-(1,3-dimethyl-2,4-dioxo-1,2,3,4-tetrahydrofuro[2,3-d]pyrimidin-5-yl)acetamide], in assay [1], the inhibition at 1 µM worked out at 99.8%, the inhibition at 10 µM turned out to be 98.4% and the IC50 was less than 50 nM. In addition, the IC50 in assay [2] is less than 50 nM.

Regarding `Cn1c(=O)c2c(CC(=O)Nc3nc(-c4cc(F)c(C(F)(F)F)c(F)c4)cs3)coc2n(C)c1=O` [Example 36, N1-{4-[3,5-Difluoro-4-(trifluoromethyl)phenyl]-1,3-thiazol-2-yl}-2-(1,3-dimethyl-2,4-dioxo-1,2,3,4-tetrahydrofuro[2,3-d]pyrimidin-5-yl)acetamide], in assay [1], the inhibition at 1 µM stood at 99.7%, the inhibition at 10 µM worked out at 99.6% and the IC50 was less than 50 nM. In addition, in assay [2], the inhibition at 10 µM was determined as 100%, the inhibition at 1 µM was 100% and the IC50 was in the range of 50 to 100 nM.

Take `Cn1c(=O)c2c(CC(=O)Nc3nc(-c4cc(F)c(OC(F)F)c(F)c4)cs3)coc2n(C)c1=O` [Example 37, N1-{4-[3,5-Difluoro-4-(difluoromethoxy)phenyl]-1,3-thiazol-2-yl}-2-(1,3-dimethyl-2,4-dioxo-1,2,3,4-tetrahydrofuro[2,3-d]pyrimidin-5-yl)acetamide]: in assay [1], the inhibition at 1 µM worked out at 99.9%, the inhibition at 10 µM came to 99.7% and the IC50 is less than 50 nM. In addition, in assay [2], the inhibition at 10 µM was 100%, the inhibition at 1 µM stood at 100% and the IC50 lay within 50 to 100 nM.

Consider `Cn1c(=O)c2c(CC(=O)Nc3nc(-c4cc(Cl)c(OC(F)F)c(Cl)c4)cs3)coc2n(C)c1=O` [Example 38, N1-{4-[3,5-Dichloro-4-(difluoromethoxy)phenyl]-1,3-thiazol-2-yl}-2-(1,3-dimethyl-2,4-dioxo-1,2,3,4-tetrahydrofuro[2,3-d]pyrimidin-5-yl)acetamide], for which, in assay [1], the inhibition at 1 µM is 99.8%, the inhibition at 10 µM was determined as 99.9% and the IC50 was less than 50 nM. In assay [2], the inhibition at 10 µM is 100%, the inhibition at 1 µM came out at 67% and the IC50 was more than 100 nM.

As to `Cn1c(=O)c2c(CC(=O)Nc3nc(-c4cc(F)c(OCC5CC5)c(F)c4)cs3)coc2n(C)c1=O` [Example 39, N1-{4-[4-(Cyclopropylmethoxy)-3,5-difluorophenyl]-1,3-thiazol-2-yl]-2-(1,3-dimethyl-2,4-dioxo-1,2,3,4-tetrahydrofuro[2,3-d]pyrimidin-5-yl)acetamide], in assay [1], the inhibition at 1 µM worked out at 94.2%, the inhibition at 10 µM stood at 98.7% and the IC50 was less than 50 nM. Besides, in assay [2], the IC50 was more than 100 nM.

For `CC(C)COc1c(F)cc(-c2csc(NC(=O)Cc3coc4c3c(=O)n(C)c(=O)n4C)n2)cc1F` [Example 40, N1-{4-(3,5-Difluoro-4-isobutoxyphenyl)-1,3-thiazol-2-yl}2-(1,3-dimethyl-2,4-dioxo-1,2,3,4-tetrahydrofuro[2,3-d]pyrimidin-5-yl)acetamide], in assay [1], the inhibition at 1 µM came out at 93.2%, the inhibition at 10 µM came out at 99.2% and the IC50 is less than 50 nM. For the same molecule, in assay [2], the inhibition at 10 µM was determined as 99.6%, the inhibition at 1 µM came out at 99.2% and the IC50 is less than 50 nM.

Take `CC(C)COc1c(Cl)cc(-c2csc(NC(=O)Cc3coc4c3c(=O)n(C)c(=O)n4C)n2)cc1Cl` [Example 41, N1-[4-(3,5-Dichloro-4-isobutoxyphenyl)-1,3-thiazol-2-yl]-2-(1,3-dimethyl-2,4-dioxo-1,2,3,4-tetrahydrofuro[2,3-d]pyrimidin-5-yl)acetamide]: in assay [1], the inhibition at 1 µM turned out to be 99.6%, the inhibition at 10 µM came out at 100% and the IC50 was less than 50 nM. In addition, in assay [2], the inhibition at 10 µM turned out to be 100%, the inhibition at 1 µM amounted to 99.5% and the IC50 is less than 50 nM.
